Earlier results in US8097707B2, “Compositions and processes for preparing 13-deoxy-anthracyclines” (priority 2004, dated 2012).

Details: test systems where doxorubicin is not metabolized appreciably to the 13-dihydro alcohol metabolite (doxorubicinol)

SMILES: COc1cccc2c1C(=O)c1c(O)c3c(c(O)c1C2=O)C[C@@](O)(C(=O)CO)C[C@@H]3O[C@H]1C[C@H](N)[C@H](O)[C@H](C)O1 [doxorubicin]
- cardiotoxic effects: no significant cardiotoxic effects
